Data as given in ChEMBL document CHEMBL1122718, “Benzylamines: synthesis and evaluation of antimycobacterial properties” (1984).

What was measured:
[1] = tested on: Mycobacterium tuberculosis; assay: Compounds were evaluated for the minimum inhibitory concentration (MIC) Mycobacterium tuberculosis H 37 Rv (thiosemicarbazone resistant); type: functional
[2] = tested on: Mycobacterium tuberculosis; assay: Compounds were evaluated for the minimum inhibitory concentration (MIC) Mycobacterium tuberculosis H 37 Rv (INH resistant); type: functional

## CCCCNCc1cccc(F)c1.Cl
[1]
  MIC: 32 µg/mL
[2]
  MIC: 8 µg/mL
